Values after ≈ are worked out from the molar mass of the structure shown.
Test system: Trypanosoma cruzi
Experiment: Growth inhibitory activity against Trypanosoma cruzi (Epimastigote)
Type: functional, organism-based

Compared with CC(C)OC(=O)NCCOc1ccc(C[C@@H]2CCCC[C@H]2O)cc1, COC(=O)NCCOc1ccc(C[C@@H]2CCCC[C@H]2O)cc1 is higher in IC50: 194 µg/mL (≈ 578 µM) for the first, over 200 µg/mL for the second.

Compared with CC(=O)N1CCN(c2ccc(OC[C@H]3CO[C@](Cn4ccnc4)(c4ccc(Cl)cc4Cl)O3)cc2)CC1 [KETOCONAZOLE], CC(C)OC(=O)NCCOc1ccc(C[C@@H]2CCCCC23OCCO3)cc1 is 85-fold higher in IC50: 1.7 µg/mL (≈ 3.2 µM) for the first, 145 µg/mL (≈ 384 µM) for the second.

CCCOC(=O)NCCOc1ccc(C[C@@H]2CCCC[C@@H]2O)cc1 and CCCOC(=O)NCCOc1ccc(C[C@@H]2CCCC[C@H]2O)cc1 are within 1.5-fold of each other in IC50: 45.7 µg/mL (≈ 136 µM) for the first, 37.3 µg/mL (≈ 111 µM) for the second.

First: CCOC(=O)NCCOc1ccc(C[C@@H]2CCCC[C@H]2O)cc1
Second: C#CCOC(=O)NCCOc1ccc(C[C@@H]2CCCC[C@H]2O)cc1
The IC50 of the first is lower: 62.3 µg/mL (≈ 194 µM) for the first, over 100 µg/mL for the second.

Work on CCCOC(=O)NCCOc1ccc(C[C@@H]2CCCCC23OCCO3)cc1 yielded an IC50 of over 200 µg/mL.

Source: ChEMBL document CHEMBL1130677, “Growth inhibitory effect of juvenile hormone analogues on epimastigotes of Trypanosoma cruzi” (Bioorg Med Chem Lett, 1998)
